# Experimental data taken from paper PMC10545747, “Development of cyclopeptide inhibitors of cGAS targeting protein-DNA interaction and phase separation” (Nature Communications, 2023).
# “And” between values parts separate entries of the source, which are not always exact repeats. Identical values can stand only once. Square brackets hold non-standard residues; d marks the D form. Peptide text beside a SMILES is read from it.
# Columns and labels:
# L929 cells = assay: ISD-induced autophagy, LC3-II immunoblotting; format: cell-based, mouse; conditions: for LC3-II relative gray ratio (normalized to GAPDH), Fig. S3a: ISD +
# Procedure: Total cell lysates were prepared in RIPA lysis buffer (Beyotime Biotechnology) supplemented with 1 mM PMSF and 1× protease inhibitor cocktail (Yeasen), and nuclear protein was extracted by nuclear protein extraction kit (Solarbio) in accordance with the manufacturer’s instructions. The samples were separated by SDS-PAGE and transferred to the PVDF membrane (Millipore). The membranes were incubated with the indicated primary antibodies at 4 °C overnight and then incubated with an HRP-conjugated anti-rabbit IgG antibody (Cell Signaling, Cat# 7074, 1:5000) or anti-mouse IgG antibody (Cell Signaling, Cat# 7076, 1:5000) at room temperature for 1 h. The signal was visualized by using the NcmECL Ultra kit (New Cell & Molecular Biotech) and then was exposed by using MiniChemi (SageCreation).
# Supplementary Fig. 3. […] (a) L929 cells were pretreated for
# 4 h with DMSO or the indicated doses of XQ2, followed by stimulation with dsDNA for 4 h, and then cell lysates were
# (b) Jurkat cells were exposed to the indicated doses of XQ2, and then stimulated with
# Data are representative of three independent experiments in (a, b). (Data are presented as mean ± SD, n = 3 independent
# provided as a Source Data file.
# (1 picture or pasted object on this page, not shown here)
# THP1 cells = assay: Cell viability (CCK-8), cytotoxicity; conditions: for Cell viability (Fig. S2e): THP1 (48h)
# Procedure: (§1) Cell viability was measured by cell counting kit-8 (TargetMol) according to the manufacturer’s instructions.
# (§2) Supplementary Fig. 2. […]
# (§3) (e-g) THP1 cells (e), L929 cells (f) and RAW264.7 cells (g) were exposed to the indicated doses of XQ2 for 48h, the cell viability was measured by CCK8 assay. Data are representative of three independent experiments in (a-g). (Data are presented as mean ± SD, n = 3 independent samples in (a-g), **p < 0.01, ***p < 0.001, ****p < 0.0001 using one-way ANOVA with Dunnett’s post hoc test).
# (§4) Source data are provided as a Source Data file. […]
# (§5) Relative viability(%) XQ2B
# (§6) Supplementary Fig. 7. […] (a) THP1 cells were exposed to the indicated doses of XQ2 or XQ2B for 48h. The cell viability was measured by CCK8 assay. […]
# (§7) Data are representative of three independent experiments with similar results in (e), or three independent experiments in (a -d, f, g) . (Data are presented as mean ± SD, n = 3 independent samples in (a-d, f, g), ns, not significant, **p < 0.01, ***p < 0.001, ****p < 0.0001 using one-way ANOV A with Dunnett’s post hoc test). Source data are provided as a Source Data file.
# [1] = Cell viability (CCK-8), cytotoxicity; conditions: human, THP1 cells
# Procedure: as §1, §2, §3, §4, §5, §6, §7
# [2] = test system: THP1 cells stimulated with poly (I: C) (TLR3 and RIG-I/MDA-5 pathways); assay: qPCR of IFNB1 mRNA in THP1 cells stimulated by poly (I: C); format: cell-based, human
# Text: We next evaluated the inhibitory effect of XQ2 against cGAS in murine fibroblast L929 cells, macrophage RAW264.7 cells and primary bone marrow-derived macrophages (BMDMs) from C57BL/6 mice.
# The indicated cells were stimulated with either ISD (Sangon Biotech), HSV-1 (Provided by Dr. Zhengfan Jiang), HSV60mer (Sangon Biotech), SATE-cddA[70], 2’3’-cGAMP (Invivogen, Cat# tlrl-nacga23-1), ADU-S100 (MedChemExpress, Cat# HY-12885A) or Poly(I:C) (Invivogen, Cat# tlrl-pic) after XQ2 or XQ2B treatment. Total RNA was isolated from indicated cells that incubated with the drugs for indicated time or mice tissues by using NucleoZOL reagent (MACHEREY-NAGEL) according to the manufacturer’s instructions. The quantifications of mRNA levels were carried out by real-time PCR using a PerfectStart® Uni RT&qPCR Kit (TransGen Biotech) on the QuantStudio 5 qPCR machine (Applied Biosystems). Samples were carried out in triplicate and the target CT values were normalized to GAPDH CT values. Primers of qPCR used in this study can be found in Supplementary Table S2.
# [3] = test system: HSV-1-infected THP1 cells; assay: qPCR of IFNB1/CXCL10/IL6 mRNA in THP1 cells stimulated by HSV-1 infection; format: cell-based, human
structure (smiles),measurement,setting,value
"CC(C)C[C@@H]1NC(=O)[C@H](CCCNC(=N)N)NC(=O)[C@H](C(C)C)NC(=O)[C@@H]2CCCN2C(=O)[C@@H](Cc2ccccc2)NC(=O)[C@H](CC(C)C)NC(=O)[C@H](CCCNC(=N)N)NC(=O)[C@H](C(C)C)NC(=O)[C@H](C)NC(=O)[C@@H](Cc2ccccc2)NC1=O [XQ2, Cyclo (LfAVRLfPVR)] (cyclo(L[dF]AVRL[dF]PVR))","ISD-induced autophagy, LC3-II formation",L929 cells,significantly reduced ISD-induced autophagy
same,"LC3-II relative gray ratio (normalized to GAPDH), Fig. S3a",L929 cells; XQ2 5 μM,1.62 and 1.737 and 1.498
same,"LC3-II relative gray ratio (normalized to GAPDH), Fig. S3a",L929 cells; XQ2 10 μM,1.275 and 1.336 and 1.295
same,Cell viability (Fig. S2e),THP1 cells; XQ2 0.16 μM,87.186 and 98.2321
same,Cell viability (Fig. S2e),THP1 cells; XQ2 0.31 μM,93.9161 and 92.7457
same,Cell viability (Fig. S2e),THP1 cells; XQ2 0.63 μM,102.329 and 90.4779
same,Cell viability (Fig. S2e),THP1 cells; XQ2 1.25 μM,94.1356 and 101.451
same,Cell viability (Fig. S2e),THP1 cells; XQ2 2.5 μM,93.4772 and 103.426
same,Cell viability (Fig. S2e),THP1 cells; XQ2 5 μM,89.1612 and 96.4765
same,Cell viability (Fig. S2e),THP1 cells; XQ2 10 μM,102.841 and 97.9395
same,IC50,"THP1 cells; read-out: IC50, cell viability (CCK8), Fig. S7a, THP1, 48h",24.3 ± 8.9 µM
same,"viability at 48 h, 0.16 µM","[1]; Cell viability (Fig. S2e), THP1 (48h), XQ2 0.16 μM",87.4%
same,"viability at 48 h, 0.31 µM","[1]; Cell viability (Fig. S2e), THP1 (48h), XQ2 0.31 μM",103%
same,"viability at 48 h, 0.63 µM","[1]; Cell viability (Fig. S2e), THP1 (48h), XQ2 0.63 μM",94.8%
same,"viability at 48 h, 1.25 µM","[1]; Cell viability (Fig. S2e), THP1 (48h), XQ2 1.25 μM",95.7%
same,"viability at 48 h, 2.5 µM","[1]; Cell viability (Fig. S2e), THP1 (48h), XQ2 2.5 μM",92.5%
same,"viability at 48 h, 5 µM","[1]; Cell viability (Fig. S2e), THP1 (48h), XQ2 5 μM",90.4%
same,"viability at 48 h, 10 µM","[1]; Cell viability (Fig. S2e), THP1 (48h), XQ2 10 μM",93.6%
same,"viability at 48 h, 0.3125 µM","[1]; Cell viability (Fig. S7a), XQ2 312.5 nM",103%
same,"viability at 48 h, 0.625 µM","[1]; Cell viability (Fig. S7a), XQ2 625 nM",94.8%
same,"viability at 48 h, 1.25 µM","[1]; Cell viability (Fig. S7a), XQ2 1250 nM",95.7%
same,"viability at 48 h, 2.5 µM","[1]; Cell viability (Fig. S7a), XQ2 2500 nM",92.5%
same,"viability at 48 h, 5 µM","[1]; Cell viability (Fig. S7a), XQ2 5000 nM",90.4%
same,"viability at 48 h, 10 µM","[1]; Cell viability (Fig. S7a), XQ2 10000 nM",93.6%
same,"viability at 48 h, 20 µM","[1]; Cell viability (Fig. S7a), XQ2 20000 nM",56.9%
same,"viability at 48 h, 40 µM","[1]; Cell viability (Fig. S7a), XQ2 40000 nM",4.01%
same,"viability at 48 h, 80 µM","[1]; Cell viability (Fig. S7a), XQ2 80000 nM",6.79%
same,"viability at 48 h, 160 µM","[1]; Cell viability (Fig. S7a), XQ2 160000 nM",6.84%
same,"viability at 48 h, 320 µM","[1]; Cell viability (Fig. S7a), XQ2 320000 nM",6.36%
same,poly (I: C)-induced IFNB1 expression,"[2]; THP1, 10 μM",did not affect the expression of IFNΒ1 induced by poly (I: C)
same,"IFNB1 mRNA, qPCR, Fig. 2b","[2]; THP1, Poly(I:C), 10 μM",400.477 and 440.107 and 373.524
same,CXCL10 mRNA (Fig. S2b),"[3]; HSV-1, XQ2 0.31 μM",13697.8 and 18057.7 and 19972.6
same,IFNB1 mRNA (Fig. S2b),"[3]; HSV-1, XQ2 0.31 μM",103.029 and 97.656 and 104.314
same,IL6 mRNA (Fig. S2b),"[3]; HSV-1, XQ2 0.31 μM",94.9854 and 106.129 and 109.338
same,CXCL10 mRNA (Fig. S2b),"[3]; HSV-1, XQ2 0.63 μM",14561.5 and 17791.3 and 14971.8
same,IFNB1 mRNA (Fig. S2b),"[3]; HSV-1, XQ2 0.63 μM",91.2373 and 106.205 and 112.809
